Consider five compounds from paper PMC12586182 (Frontiers in Oncology, 2025).

The target in one test is T1, p38γ (Homo sapiens, UniProt P53778).
T1 construct: purchased Carna Biosciences
T1 sequence (P53778 1-367): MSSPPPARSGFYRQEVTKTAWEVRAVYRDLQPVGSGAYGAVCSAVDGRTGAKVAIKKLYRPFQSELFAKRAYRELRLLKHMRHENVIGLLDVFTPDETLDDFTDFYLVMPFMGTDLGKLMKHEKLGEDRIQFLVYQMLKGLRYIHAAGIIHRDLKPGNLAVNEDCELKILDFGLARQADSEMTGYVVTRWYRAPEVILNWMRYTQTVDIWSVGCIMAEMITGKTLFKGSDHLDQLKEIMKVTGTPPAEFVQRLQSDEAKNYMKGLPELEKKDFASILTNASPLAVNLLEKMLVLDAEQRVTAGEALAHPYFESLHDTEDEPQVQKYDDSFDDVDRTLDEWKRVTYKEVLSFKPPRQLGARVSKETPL
Briefly: Kinase panel profiling at 1 µmol/L (mobility shift assay, Carna). Format: biochemical. Conditions: 1 µmol/L of BTK inhibitor.

A further test addresses T2, PYK2 (Homo sapiens, UniProt Q14289).
T2 construct: purchased Carna Biosciences
The description is as above. As to conditions: 1 µmol/L of BTK inhibitor. Format: biochemical.

The target of another test is T3, JAK3 (Homo sapiens, UniProt P52333).
T3 construct: purchased Carna Biosciences
T3 sequence (P52333 1-1124): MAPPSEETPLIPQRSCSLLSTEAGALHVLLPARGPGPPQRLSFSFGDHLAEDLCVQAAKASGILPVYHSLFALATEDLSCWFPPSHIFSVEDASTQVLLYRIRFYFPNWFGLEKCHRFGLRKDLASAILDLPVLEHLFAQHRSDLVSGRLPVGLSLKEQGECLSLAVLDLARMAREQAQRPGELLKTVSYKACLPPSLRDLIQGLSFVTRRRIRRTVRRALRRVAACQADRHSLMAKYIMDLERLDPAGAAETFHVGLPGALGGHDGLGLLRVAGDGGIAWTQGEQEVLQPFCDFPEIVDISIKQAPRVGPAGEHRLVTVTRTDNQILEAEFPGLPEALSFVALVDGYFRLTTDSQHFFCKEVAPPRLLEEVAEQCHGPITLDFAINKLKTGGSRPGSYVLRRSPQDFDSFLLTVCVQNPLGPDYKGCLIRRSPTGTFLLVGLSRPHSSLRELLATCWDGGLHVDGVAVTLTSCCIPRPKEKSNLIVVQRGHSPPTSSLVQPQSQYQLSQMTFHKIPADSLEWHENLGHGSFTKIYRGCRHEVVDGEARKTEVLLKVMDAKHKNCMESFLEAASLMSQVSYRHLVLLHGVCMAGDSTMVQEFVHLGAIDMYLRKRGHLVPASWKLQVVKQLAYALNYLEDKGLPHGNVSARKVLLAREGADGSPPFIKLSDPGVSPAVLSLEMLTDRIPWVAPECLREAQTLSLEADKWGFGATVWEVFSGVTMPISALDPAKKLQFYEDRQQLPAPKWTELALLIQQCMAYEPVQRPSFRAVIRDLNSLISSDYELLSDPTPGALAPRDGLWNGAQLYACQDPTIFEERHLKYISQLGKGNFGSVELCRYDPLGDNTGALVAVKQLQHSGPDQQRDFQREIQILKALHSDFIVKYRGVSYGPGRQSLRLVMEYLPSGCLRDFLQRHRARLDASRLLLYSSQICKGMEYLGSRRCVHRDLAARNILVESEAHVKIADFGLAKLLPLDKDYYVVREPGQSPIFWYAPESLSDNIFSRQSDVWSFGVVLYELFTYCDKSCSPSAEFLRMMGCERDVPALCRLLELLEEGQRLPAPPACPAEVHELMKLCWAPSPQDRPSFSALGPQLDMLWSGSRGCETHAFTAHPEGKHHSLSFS
Described as above. Conditions: 1 µmol/L of BTK inhibitor. It counts as biochemical.

The target in the next test is FGFR2 (Homo sapiens, UniProt P21802). The experiment in a line: Kinase enzyme activity assay (mobility shift assay, Carna). As to conditions: for Percentage inhibition of kinase enzyme activity: FGFR2, 1 µmol/L of BTK inhibitor.
FGFR2, sequence (P21802 22-821): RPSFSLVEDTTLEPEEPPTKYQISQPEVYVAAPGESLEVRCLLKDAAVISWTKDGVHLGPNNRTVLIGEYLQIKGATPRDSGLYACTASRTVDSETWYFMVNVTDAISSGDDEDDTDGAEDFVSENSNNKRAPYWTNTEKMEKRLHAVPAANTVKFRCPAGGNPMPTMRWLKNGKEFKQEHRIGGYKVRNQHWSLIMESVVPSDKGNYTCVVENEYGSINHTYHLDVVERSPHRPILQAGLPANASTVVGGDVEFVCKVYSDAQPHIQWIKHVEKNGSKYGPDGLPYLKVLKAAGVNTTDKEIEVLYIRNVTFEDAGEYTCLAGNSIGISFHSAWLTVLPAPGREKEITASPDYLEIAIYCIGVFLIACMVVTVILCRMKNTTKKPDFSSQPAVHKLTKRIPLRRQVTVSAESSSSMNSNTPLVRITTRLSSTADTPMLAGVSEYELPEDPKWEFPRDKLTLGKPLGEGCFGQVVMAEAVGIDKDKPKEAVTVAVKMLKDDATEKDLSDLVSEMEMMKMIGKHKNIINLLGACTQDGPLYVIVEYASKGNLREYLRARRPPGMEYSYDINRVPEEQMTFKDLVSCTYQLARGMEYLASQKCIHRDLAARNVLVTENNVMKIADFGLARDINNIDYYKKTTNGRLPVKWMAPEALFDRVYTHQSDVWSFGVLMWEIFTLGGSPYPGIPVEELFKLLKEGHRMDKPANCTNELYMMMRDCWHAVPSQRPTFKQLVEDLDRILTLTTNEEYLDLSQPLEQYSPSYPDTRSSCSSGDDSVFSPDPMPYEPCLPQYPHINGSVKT
The target in another test is FGFR4 (Homo sapiens, UniProt P22455). The test is described as above. Conditions: for Percentage inhibition of kinase enzyme activity: FGFR4, 1 µmol/L of BTK inhibitor.
FGFR4, sequence (P22455 22-802): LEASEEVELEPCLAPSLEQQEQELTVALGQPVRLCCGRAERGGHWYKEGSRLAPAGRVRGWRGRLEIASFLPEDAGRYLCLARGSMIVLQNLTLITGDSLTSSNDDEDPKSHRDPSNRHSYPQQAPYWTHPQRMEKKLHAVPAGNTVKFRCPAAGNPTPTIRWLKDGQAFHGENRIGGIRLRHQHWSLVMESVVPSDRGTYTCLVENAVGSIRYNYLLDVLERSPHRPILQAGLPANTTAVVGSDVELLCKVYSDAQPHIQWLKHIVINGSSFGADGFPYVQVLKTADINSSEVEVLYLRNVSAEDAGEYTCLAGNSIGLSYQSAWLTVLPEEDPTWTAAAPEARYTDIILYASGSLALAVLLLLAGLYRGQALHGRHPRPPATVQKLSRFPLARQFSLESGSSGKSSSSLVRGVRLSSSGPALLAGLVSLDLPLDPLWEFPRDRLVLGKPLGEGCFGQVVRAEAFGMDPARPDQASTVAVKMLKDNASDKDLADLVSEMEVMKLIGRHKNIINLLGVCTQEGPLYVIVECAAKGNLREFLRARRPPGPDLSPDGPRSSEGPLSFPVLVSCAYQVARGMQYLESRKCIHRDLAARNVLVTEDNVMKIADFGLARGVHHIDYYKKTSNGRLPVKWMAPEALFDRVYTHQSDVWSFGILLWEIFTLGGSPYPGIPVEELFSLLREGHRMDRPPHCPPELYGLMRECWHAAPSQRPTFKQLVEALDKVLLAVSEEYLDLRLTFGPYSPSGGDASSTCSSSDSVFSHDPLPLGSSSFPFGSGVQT
A further test has as its target T4, CDC2/CycB1 (Homo sapiens, UniProt P06493).
T4 construct: purchased Carna Biosciences
The experiment in a line: Kinase panel profiling at 1 µmol/L (mobility shift assay, Carna). It counts as biochemical. As to conditions: 1 µmol/L of BTK inhibitor.

In another test the target is T5, Haspin (Homo sapiens, UniProt Q8TF76).
T5 construct: purchased Carna Biosciences
T5 sequence (Q8TF76 1-798): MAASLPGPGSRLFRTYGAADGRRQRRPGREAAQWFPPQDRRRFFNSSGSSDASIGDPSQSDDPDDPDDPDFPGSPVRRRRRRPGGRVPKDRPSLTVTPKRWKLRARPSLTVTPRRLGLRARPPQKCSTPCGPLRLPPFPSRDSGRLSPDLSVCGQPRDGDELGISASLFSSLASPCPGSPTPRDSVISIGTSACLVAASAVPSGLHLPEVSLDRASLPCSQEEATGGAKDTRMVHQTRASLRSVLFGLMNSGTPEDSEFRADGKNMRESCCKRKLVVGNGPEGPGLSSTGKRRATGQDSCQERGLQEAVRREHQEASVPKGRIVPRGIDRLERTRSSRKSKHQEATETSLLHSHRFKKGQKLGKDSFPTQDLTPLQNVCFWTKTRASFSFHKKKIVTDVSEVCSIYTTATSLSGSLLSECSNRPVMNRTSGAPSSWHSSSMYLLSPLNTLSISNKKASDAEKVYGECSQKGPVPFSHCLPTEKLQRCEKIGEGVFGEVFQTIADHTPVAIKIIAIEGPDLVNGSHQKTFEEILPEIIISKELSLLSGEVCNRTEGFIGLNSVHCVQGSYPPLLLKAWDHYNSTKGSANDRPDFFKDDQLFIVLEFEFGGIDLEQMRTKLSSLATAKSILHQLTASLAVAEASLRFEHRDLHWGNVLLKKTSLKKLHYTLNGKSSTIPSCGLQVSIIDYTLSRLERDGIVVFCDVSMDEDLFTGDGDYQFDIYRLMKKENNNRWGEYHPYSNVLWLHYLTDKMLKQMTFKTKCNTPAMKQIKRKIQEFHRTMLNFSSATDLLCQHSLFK
The description is as above. As to conditions: 1 µmol/L of BTK inhibitor. Format: biochemical.

The target in the next test is T6, PKN1 (Homo sapiens, UniProt Q16512).
T6 construct: purchased Carna Biosciences
T6 sequence (Q16512 whole entry): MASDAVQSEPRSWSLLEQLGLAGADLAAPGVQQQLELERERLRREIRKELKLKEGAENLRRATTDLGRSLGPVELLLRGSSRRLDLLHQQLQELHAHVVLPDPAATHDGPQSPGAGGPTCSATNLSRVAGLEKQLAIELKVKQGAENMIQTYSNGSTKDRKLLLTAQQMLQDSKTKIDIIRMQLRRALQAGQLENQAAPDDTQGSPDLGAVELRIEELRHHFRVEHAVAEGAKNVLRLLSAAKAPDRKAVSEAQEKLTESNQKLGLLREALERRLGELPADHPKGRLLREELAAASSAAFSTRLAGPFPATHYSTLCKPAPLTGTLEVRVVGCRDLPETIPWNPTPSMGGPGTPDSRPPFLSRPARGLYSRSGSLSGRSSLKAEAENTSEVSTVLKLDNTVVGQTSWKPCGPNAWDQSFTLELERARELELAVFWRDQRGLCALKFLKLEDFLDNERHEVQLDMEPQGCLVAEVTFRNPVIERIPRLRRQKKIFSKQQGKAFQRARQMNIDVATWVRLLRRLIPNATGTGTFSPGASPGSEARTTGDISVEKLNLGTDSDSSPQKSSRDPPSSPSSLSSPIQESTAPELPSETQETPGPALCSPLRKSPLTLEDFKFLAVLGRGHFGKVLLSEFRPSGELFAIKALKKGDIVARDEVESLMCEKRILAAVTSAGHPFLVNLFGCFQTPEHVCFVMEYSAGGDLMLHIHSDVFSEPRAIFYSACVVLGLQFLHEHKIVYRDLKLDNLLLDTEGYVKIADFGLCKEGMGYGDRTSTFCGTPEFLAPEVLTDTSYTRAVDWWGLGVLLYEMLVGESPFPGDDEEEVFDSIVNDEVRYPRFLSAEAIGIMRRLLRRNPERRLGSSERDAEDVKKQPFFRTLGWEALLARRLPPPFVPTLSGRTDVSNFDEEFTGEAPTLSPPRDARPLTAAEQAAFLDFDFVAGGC
Described as above. Conditions: 1 µmol/L of BTK inhibitor. Format: biochemical.

For the next test, the target named is T7, skMLCK (Homo sapiens, UniProt Q9H1R3).
T7 construct: purchased Carna Biosciences
T7 sequence (Q9H1R3 whole entry): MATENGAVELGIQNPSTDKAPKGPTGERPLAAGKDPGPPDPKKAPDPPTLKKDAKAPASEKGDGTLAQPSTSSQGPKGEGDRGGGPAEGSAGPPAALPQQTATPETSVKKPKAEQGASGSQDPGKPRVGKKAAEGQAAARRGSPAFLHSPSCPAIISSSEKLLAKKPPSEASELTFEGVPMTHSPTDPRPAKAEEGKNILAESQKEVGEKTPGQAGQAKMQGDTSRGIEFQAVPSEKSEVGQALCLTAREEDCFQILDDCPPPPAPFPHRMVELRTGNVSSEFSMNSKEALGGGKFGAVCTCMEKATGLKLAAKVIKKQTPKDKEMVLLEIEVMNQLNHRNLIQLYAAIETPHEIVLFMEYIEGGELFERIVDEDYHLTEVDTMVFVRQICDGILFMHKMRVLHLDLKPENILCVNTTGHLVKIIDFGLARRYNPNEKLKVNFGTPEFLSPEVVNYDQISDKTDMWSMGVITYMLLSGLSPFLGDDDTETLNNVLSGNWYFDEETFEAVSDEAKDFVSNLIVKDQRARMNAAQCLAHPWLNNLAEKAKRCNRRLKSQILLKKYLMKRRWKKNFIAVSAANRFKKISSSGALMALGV
The description is as above. Format: biochemical. As to conditions: 1 µmol/L of BTK inhibitor.

A further test has as its target T8, CLK1 (Homo sapiens, UniProt P49759).
T8 construct: purchased Carna Biosciences
The test is described as above. Conditions: 1 µmol/L of BTK inhibitor. It counts as biochemical.

T8 sequence (P49759 whole entry): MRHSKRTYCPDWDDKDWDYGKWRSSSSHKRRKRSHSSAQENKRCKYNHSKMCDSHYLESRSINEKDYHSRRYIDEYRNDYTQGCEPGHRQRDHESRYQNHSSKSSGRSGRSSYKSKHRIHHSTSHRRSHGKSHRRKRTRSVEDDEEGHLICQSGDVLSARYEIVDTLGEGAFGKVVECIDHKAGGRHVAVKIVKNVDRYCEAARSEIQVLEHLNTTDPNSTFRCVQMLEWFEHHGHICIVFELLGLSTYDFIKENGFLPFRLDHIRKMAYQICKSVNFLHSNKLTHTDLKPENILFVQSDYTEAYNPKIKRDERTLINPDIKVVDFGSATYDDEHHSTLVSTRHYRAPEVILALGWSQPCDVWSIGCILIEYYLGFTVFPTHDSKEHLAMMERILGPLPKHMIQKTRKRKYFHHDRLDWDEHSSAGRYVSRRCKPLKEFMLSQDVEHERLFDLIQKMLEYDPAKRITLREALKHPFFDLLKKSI
T4 sequence (P06493 whole entry): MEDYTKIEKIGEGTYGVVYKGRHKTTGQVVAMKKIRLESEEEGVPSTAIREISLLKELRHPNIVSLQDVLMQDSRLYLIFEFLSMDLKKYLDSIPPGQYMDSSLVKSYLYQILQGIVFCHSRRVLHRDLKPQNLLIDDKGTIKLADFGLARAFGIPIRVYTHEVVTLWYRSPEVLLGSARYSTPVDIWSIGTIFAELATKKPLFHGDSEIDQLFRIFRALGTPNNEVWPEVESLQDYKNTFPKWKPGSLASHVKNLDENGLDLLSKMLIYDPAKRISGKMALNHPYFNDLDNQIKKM
T4 sequence (P14635 whole entry partner): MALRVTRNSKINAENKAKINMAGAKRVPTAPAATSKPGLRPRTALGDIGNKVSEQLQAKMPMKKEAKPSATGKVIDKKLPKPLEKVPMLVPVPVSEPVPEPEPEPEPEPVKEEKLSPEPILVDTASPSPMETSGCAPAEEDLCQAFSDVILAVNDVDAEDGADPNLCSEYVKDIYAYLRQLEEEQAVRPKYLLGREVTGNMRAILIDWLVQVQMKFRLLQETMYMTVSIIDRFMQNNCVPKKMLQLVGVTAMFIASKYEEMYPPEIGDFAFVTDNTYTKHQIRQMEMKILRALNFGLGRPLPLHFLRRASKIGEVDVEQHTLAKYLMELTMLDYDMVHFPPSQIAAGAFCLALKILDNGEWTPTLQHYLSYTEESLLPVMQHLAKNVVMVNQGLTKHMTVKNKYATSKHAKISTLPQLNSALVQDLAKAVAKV

On to `CC#CC(=O)N1CCC[C@H]1c1nc(-c2ccc(C(=O)Nc3ccccn3)cc2)c2c(N)nccn12` [acalabrutinib], for which the “Percentage inhibition of kinase enzyme activity” value (“Percentage inhibition” for short) at p38γ is -1.74%; at PYK2, -3.55%; on JAK3, -1.00%; on FGFR2, -6.22%; on FGFR4, -8.97%; on CDC2/CycB1, -0.40%. In addition, the “Percentage inhibition” value was 5.31% on Haspin, 11.29% at PKN1, -17.48% at skMLCK and -8.11% on CLK1.

On to `C=CC(=O)N1CCC[C@@H](n2nc(-c3ccc(Oc4ccccc4)cc3)c3c(N)ncnc32)C1` [ibrutinib], for which the “Percentage inhibition” value was 3.51% at p38γ; 3.37% at PYK2; 90.92% on JAK3; 81.29% on FGFR2; 36.91% at FGFR4; -1.03% at CDC2/CycB1. Moreover, the “Percentage inhibition” value was 2.53% at Haspin, 8.58% on PKN1 and -16.74% on skMLCK.

One may read the IC50 as the midpoint of a concentration-inhibition curve. On to `O=C(c1ccc(Oc2ccccc2)cc1Cl)c1c[nH]c2ncnc(N[C@@H]3CC[C@@H](CO)OC3)c12` [nemtabrutinib], for which the “Percentage inhibition” value at p38γ is recorded as 0.72%; at PYK2 it was 100.08%; on JAK3, 97.48%; on FGFR2 it was 45.29%; on FGFR4, 1.97%; on CDC2/CycB1 it was -7.65%. Moreover, the “Percentage inhibition” value at Haspin is -1.40%; on PKN1, 5.57%; at skMLCK, 2.60%; on CLK1 it was 0.63%. Further, the figures for the IC50 on FGFR2 and on FGFR4 were 34 nM and 1400 nM, respectively.

For `COc1ccc(F)cc1C(=O)NCc1ccc(-c2nn([C@@H](C)C(F)(F)F)c(N)c2C(N)=O)cc1` [pirtobrutinib], the “Percentage inhibition” value at p38γ was -2.05%; on PYK2, 7.26%; at JAK3, -1.25%; at FGFR2, 12.14%; at FGFR4 it was 1.27%; at CDC2/CycB1, -10.48%. Further, the “Percentage inhibition” value was -3.18% on Haspin, 15.81% at PKN1, -3.69% at skMLCK and -2.61% at CLK1.

Regarding `C=CC(=O)N1CCC([C@@H]2CCNc3c(C(N)=O)c(-c4ccc(Oc5ccccc5)cc4)nn32)CC1` [zanubrutinib], the “Percentage inhibition” value is recorded as 16.35% on PYK2, 10.83% at JAK3, 1.70% on FGFR2 and 0.81% on FGFR4.
